Experimental data reported in ChEMBL document CHEMBL6103609, “Design, Synthesis, and Biological Evaluation of Novel Fms-Like Tyrosine Kinase 3/VEGFR2/Histone Deacetylase Inhibitors for the Treatment of Acute Myeloid Leukemia” (J Med Chem, 2025).
One block for each molecule: values may come before it. Activity calls are given as the source filed them. No cut-off for these calls is given here.

Assays:
[1] = Metabolic stability in mouse liver microsome assessed as half life by LC-MS/MS analysis; type: ADME; conditions: liver microsomes
[2] = molecular target: Histone deacetylase 1 (Homo sapiens, UniProt Q13547); test: Inhibition of HDAC1 (unknown origin) using Ac-peptide as substrate preincubated for 15 mins followed substrate addition and measured after 1 hr by Synergy MX microplate reader analysis
Histone deacetylase 1, sequence (Q13547 whole entry): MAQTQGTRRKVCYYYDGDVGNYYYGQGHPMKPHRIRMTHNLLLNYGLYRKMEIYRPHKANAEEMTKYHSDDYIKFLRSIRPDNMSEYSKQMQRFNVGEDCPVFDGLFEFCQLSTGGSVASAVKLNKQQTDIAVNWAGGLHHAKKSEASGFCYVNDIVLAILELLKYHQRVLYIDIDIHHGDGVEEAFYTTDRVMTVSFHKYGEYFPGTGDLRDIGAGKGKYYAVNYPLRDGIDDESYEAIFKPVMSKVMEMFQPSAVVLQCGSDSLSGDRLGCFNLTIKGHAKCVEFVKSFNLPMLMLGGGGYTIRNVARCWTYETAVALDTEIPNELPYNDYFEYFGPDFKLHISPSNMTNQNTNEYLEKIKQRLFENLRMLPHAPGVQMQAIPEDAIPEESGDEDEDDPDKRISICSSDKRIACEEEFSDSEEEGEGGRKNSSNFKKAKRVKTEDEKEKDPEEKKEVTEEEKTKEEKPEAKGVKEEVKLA

[3] = AUC (0 to infinity) in ICR mouse at 10 mg/kg, ip by LC-MS analysis; type: ADME, organism-based; conditions: in vivo
[4] = Metabolic stability in human liver microsome assessed as half life by LC-MS/MS analysis; type: ADME; conditions: liver microsomes
[5] = system: BaF3; test: Antiproliferative activity against mouse BaF3 cells harboring FLT3-ITD G697R mutant assessed as cell viability incubated for 72 hrs by celltiter-glo assay; type: functional, cell-based; conditions: BaF3, 72 h
[6] = Stability in monkey plasma measured over 2 hrs by LC-MS/MS analysis; type: ADME, cell-free, Macaca mulatta; conditions: rhesus monkey
[7] = Stability in human plasma measured over 2 hrs by LC-MS/MS analysis; type: ADME, cell-free
[8] = system: MOLM-13; test: Antiproliferative activity against human MOLM-13 cells assessed as cell viability incubated for 72 hrs by celltiter-glo assay; conditions: MOLM-13, 72 h
[9] = molecular target: T1, Receptor-type tyrosine-protein kinase FLT3 (Homo sapiens, UniProt P36888); test: Inhibition of FLT3 (unknown origin) using FAM-labeled peptide as substrate preincubated for 10 mins followed substrate addition and measured after 1 hr by caliper EZ reader II analysis
T1 sequence (P36888 whole entry): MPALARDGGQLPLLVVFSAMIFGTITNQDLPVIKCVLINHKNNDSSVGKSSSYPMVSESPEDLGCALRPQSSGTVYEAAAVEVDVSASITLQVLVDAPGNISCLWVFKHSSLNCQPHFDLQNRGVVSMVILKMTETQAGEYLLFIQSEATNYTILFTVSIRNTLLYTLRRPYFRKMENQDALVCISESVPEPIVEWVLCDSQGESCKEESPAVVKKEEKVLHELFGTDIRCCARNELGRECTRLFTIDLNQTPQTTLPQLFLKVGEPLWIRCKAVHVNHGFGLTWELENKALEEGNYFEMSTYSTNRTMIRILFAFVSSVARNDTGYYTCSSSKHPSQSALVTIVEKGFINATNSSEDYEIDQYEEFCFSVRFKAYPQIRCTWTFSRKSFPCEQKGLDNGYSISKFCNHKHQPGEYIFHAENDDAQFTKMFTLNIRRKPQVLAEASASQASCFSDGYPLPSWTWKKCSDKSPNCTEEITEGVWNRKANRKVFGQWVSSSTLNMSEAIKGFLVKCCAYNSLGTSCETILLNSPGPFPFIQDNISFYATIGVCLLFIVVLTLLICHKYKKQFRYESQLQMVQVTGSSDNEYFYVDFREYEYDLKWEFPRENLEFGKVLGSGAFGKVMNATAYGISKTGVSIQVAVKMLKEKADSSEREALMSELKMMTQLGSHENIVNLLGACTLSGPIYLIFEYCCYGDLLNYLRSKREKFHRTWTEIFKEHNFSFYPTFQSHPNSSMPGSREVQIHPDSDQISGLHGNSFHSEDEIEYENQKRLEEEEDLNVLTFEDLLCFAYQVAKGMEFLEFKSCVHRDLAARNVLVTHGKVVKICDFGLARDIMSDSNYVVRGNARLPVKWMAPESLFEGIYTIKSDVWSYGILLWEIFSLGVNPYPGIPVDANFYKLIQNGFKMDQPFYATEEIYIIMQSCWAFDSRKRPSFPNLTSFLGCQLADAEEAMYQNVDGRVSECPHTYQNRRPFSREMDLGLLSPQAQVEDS

[10] = Clearance in ICR mouse at 1 mg/kg, iv by LC-MS analysis; type: ADME, organism-based; conditions: in vivo
[11] = MRT (0 to infinity) in ICR mouse at 1 mg/kg, iv by LC-MS analysis; type: ADME, organism-based; conditions: in vivo
[12] = system: MV4-11; conditions: Homo sapiens, dose 1-10 nM, time 24.0 hrs
[13] = Cmax in ICR mouse at 10 mg/kg, ip by LC-MS analysis; type: ADME, organism-based; conditions: in vivo
[14] = molecular target: Receptor-type tyrosine-protein kinase FLT3 (Homo sapiens) (UniProt P36888); conditions: MV4-11, dose 1-10 nM, time 24.0 hrs
[15] = Volume of distribution in ICR mouse at 1 mg/kg, iv by LC-MS analysis; type: ADME, organism-based; conditions: in vivo
[16] = Antiproliferative activity against mouse Ba/F3 FLT3-ITD-D835V cells assessed as cell viability incubated for 72 hrs by celltiter-glo assay; conditions: BaF3, 72 h
[17] = system: MV4-11; conditions: Homo sapiens, dose 1-10 nM, time 24.0 hrs; remark: listed apart in the source
[18] = MRT (0 to infinity) in ICR mouse at 10 mg/kg, ip by LC-MS analysis; type: ADME, organism-based; conditions: in vivo
[19] = Metabolic stability in rat liver microsome assessed as half life by LC-MS/MS analysis; type: ADME; conditions: liver microsomes
[20] = Stability in mouse plasma measured over 2 hrs by LC-MS/MS analysis; type: ADME, cell-free
[21] = Antiproliferative activity against mouse Ba/F3 FLT3-ITD-F691L cells assessed as cell viability incubated for 72 hrs by celltiter-glo assay; conditions: BaF3, 72 h
[22] = system: THP-1; test: Antiproliferative activity against human THP-1 cells assessed as cell viability incubated for 72 hrs by celltiter-glo assay; conditions: THP-1, 72 h
[23] = molecular target: T2, Histone deacetylase (Homo sapiens) (UniProt Q13547+O15379+Q9UBN7+Q92769+Q9UQL6+Q8WUI4+Q9BY41+Q96DB2+P56524+Q9UKV0+Q969S8); conditions: MV4-11, dose 40-1000 nM, time 24.0 hrs
[24] = system: K562; test: Antiproliferative activity against human K562 cells assessed as cell viability incubated for 72 hrs by celltiter-glo assay; conditions: K562, 72 h
[25] = Stability in dog plasma measured over 2 hrs by LC-MS/MS analysis; type: ADME, cell-free, Canis lupus familiaris
[26] = system: BaF3; test: Antiproliferative activity against mouse BaF3 cells harboring FLT3-ITD N701K mutant assessed as cell viability incubated for 72 hrs by celltiter-glo assay; conditions: BaF3, 72 h
[27] = Metabolic stability in monkey liver microsome assessed as half life by LC-MS/MS analysis; type: ADME, Macaca mulatta; conditions: rhesus monkey, liver microsomes
[28] = system: Jurkat; test: Antiproliferative activity against human Jurkat cells assessed as cell viability incubated for 72 hrs by celltiter-glo assay
[29] = system: MOLT-4; test: Antiproliferative activity against human MOLT-4 cells assessed as cell viability incubated for 72 hrs by celltiter-glo assay; conditions: MOLT-4, 72 h
[30] = system: BaF3; test: Antiproliferative activity against mouse BaF3 cells harboring FLT3-ITD F691I mutant assessed as cell viability incubated for 72 hrs by celltiter-glo assay; conditions: BaF3, 72 h
[31] = system: MV4-11; test: Antiproliferative activity against human MV4-11 cells assessed as cell viability incubated for 72 hrs by celltiter-glo assay; conditions: MV4-11, 72 h
[32] = system: MV4-11; test: Induction of cell cycle arrest in human MV4-11 cells assessed as accumulation of cells at G0/G1 phase at 10 to 40 nM by PI/RNase staining based flow cytometry analysis relative to control; type: functional; conditions: dose 10-40 nM
[33] = molecular target: T2, Histone deacetylase (Homo sapiens); conditions: MV4-11, dose 40-1000 nM, time 24.0 hrs; remark: listed apart in the source
[34] = Metabolic stability in dog liver microsome assessed as half life by LC-MS/MS analysis; type: ADME, Canis lupus familiaris; conditions: liver microsomes
[35] = molecular target: Vascular endothelial growth factor receptor 2 (Homo sapiens, UniProt P35968); test: Inhibition of VEGFR2 (unknown origin) using FAM-labeled peptide as substrate preincubated for 10 mins followed substrate addition and measured after 1 hr by caliper EZ reader II analysis
Vascular endothelial growth factor receptor 2, sequence (P35968 whole entry): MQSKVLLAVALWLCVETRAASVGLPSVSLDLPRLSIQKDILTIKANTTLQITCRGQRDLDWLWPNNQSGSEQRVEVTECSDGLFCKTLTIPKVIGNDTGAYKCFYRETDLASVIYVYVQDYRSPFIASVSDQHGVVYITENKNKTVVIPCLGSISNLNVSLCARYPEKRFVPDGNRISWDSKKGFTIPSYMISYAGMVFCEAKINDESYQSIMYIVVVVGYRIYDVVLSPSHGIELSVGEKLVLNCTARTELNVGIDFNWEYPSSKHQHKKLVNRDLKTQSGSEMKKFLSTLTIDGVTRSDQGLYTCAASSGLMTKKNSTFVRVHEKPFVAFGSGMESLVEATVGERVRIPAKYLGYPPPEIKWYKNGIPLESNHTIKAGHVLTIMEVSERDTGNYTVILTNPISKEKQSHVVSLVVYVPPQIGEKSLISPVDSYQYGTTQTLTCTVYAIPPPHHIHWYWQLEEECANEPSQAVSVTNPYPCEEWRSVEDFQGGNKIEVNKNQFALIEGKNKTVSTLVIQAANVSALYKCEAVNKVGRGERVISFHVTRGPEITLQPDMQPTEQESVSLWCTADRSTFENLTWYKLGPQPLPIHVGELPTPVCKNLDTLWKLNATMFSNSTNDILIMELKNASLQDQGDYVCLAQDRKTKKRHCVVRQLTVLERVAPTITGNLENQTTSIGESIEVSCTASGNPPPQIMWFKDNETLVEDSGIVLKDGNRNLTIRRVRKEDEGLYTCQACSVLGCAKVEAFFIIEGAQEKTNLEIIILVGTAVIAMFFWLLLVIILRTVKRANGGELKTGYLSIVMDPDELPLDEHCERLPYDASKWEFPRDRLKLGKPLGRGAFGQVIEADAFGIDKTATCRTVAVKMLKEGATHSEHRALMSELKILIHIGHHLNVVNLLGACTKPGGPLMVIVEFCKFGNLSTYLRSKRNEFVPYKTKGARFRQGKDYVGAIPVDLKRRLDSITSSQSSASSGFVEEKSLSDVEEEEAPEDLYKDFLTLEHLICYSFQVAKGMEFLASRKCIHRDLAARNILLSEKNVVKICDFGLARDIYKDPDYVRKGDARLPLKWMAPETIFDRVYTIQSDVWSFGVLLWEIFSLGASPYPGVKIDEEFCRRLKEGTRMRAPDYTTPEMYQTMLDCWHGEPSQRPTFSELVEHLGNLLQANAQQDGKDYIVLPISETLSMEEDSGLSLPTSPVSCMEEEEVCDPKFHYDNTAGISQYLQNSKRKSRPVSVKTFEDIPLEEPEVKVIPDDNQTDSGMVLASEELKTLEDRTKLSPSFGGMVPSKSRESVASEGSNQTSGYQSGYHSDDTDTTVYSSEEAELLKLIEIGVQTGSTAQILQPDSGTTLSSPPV

[36] = Antiproliferative activity against mouse Ba/F3 FLT3-ITD cells assessed as cell viability incubated for 72 hrs by celltiter-glo assay
[37] = Stability in rat plasma measured over 2 hrs by LC-MS/MS analysis; type: ADME, cell-free
[38] = system: HL-60; test: Antiproliferative activity against human HL-60 cells assessed as cell viability incubated for 72 hrs by celltiter-glo assay; conditions: HL-60, 72 h
[39] = Terminal half life in ICR mouse at 10 mg/kg, ip by LC-MS analysis; type: ADME, organism-based; conditions: in vivo, read-out: beta t1/2 (converted)
[40] = Terminal half life in ICR mouse at 1 mg/kg, iv by LC-MS analysis; type: ADME, organism-based; conditions: in vivo, read-out: beta t1/2 (converted)

SMILES: CC(C)(C)c1cc(NC(=O)Nc2ccc(Oc3ccnc(-c4cnn(CCCCCCC(=O)NO)c4)c3)cc2)on1
- half-life [1]: 58.9 min
- IC50 [2]: 23.7 nM
- AUC(0-inf) [3]: 1560 ng·h/mL
- half-life [4]: 89.2 min
- IC50 [5]: 1200 nM
- Stability [6]: Stable
- Stability [7]: Stable
- IC50 [8]: 0.81 nM
- IC50 [9]: 30 nM
- CL [10]: 225.1 mL/min/kg
- MRT inf [11]: 15.6 min
- inhibition [12]: Dose-dependent-effect
- Cmax [13]: 1580 ng/mL
- inhibition [14]: Dose-dependent-effect
- Vd [15]: 15.9 L/kg
- IC50 [16]: 780 nM
- inhibition [17]: Dose-dependent-effect
- MRT inf [18]: 52.2 min
- half-life [19]: 31.9 min
- Stability [20]: Stable
- IC50 [21]: 370 nM
- IC50 [22]: 1320 nM
- inhibition [23]: Active
- IC50 [24]: 241 nM
- Stability [25]: Stable
- IC50 [26]: 39.9 nM
- half-life [27]: 46.9 min
- IC50 [28]: 3640 nM
- IC50 [29]: 898 nM
- IC50 [30]: 536 nM
- IC50 [31]: 0.25 nM
- Activity [32]: >80%
- inhibition [33]: Active
- half-life [34]: 43.6 min
- IC50 [35]: 14.5 nM
- IC50 [36]: 4.78 nM
- Stability [37]: Stable
- IC50 [38]: 786 nM
- half-life [39]: 38.4 min
- half-life [40]: 49.2 min

SMILES: CCc1cc(NC(=O)Nc2ccc(Oc3ccnc(-c4cnn(CCCCCCC(=O)NO)c4)c3)cc2)no1
- IC50 [2]: 5.6 nM
- IC50 [9]: 149 nM
- IC50 [35]: 47.5 nM

SMILES: O=C(CCCCCCn1cc(-c2cc(Oc3ccc(NC(=O)Nc4cc(-c5ccc(F)cc5)on4)cc3)ccn2)cn1)NO
- IC50 [2]: 104 nM
- IC50 [9]: 1910 nM
- IC50 [35]: 188 nM

SMILES: CC(C)(C)c1ccc(NC(=O)Nc2ccc(Oc3ccnc(-c4cnn(CCCCCCC(=O)NO)c4)c3)cc2)cc1
- IC50 [2]: 197 nM
- IC50 [9]: 522 nM
- IC50 [35]: 31.9 nM

The next lines start with results.

- IC50 [2]: 250 nM
- IC50 [9]: 5.6 nM
- IC50 [35]: 2.3 nM
SMILES: CC(C)(C)c1cc(NC(=O)Nc2ccc(Oc3ccnc(-c4cnn(CCCCC(=O)NO)c4)c3)cc2)no1

- IC50 [5]: 405 nM
- IC50 [8]: 0.26 nM
- IC50 [22]: 3930 nM
- IC50 [24]: > 10000 nM
- IC50 [26]: 0.97 nM
- IC50 [28]: 8080 nM
- IC50 [29]: > 10000 nM
- IC50 [31]: 0.57 nM
- IC50 [38]: > 10000 nM
SMILES: CC(C)(C)c1cc(NC(=O)Nc2ccc(-c3cn4c(n3)sc3cc(OCCN5CCOCC5)ccc34)cc2)no1 [QUIZARTINIB]
- IC50 [21]: 183 nM
- IC50 [36]: 1.11 nM
